Source: US8415342B2, “Besifloxacin ophthalmic composition for the treatment or control of infection” (Bausch & Lomb Incorporated, priority 2008, dated 2013)
≈ marks a conversion by molar mass, not a printed value. Where two headings read alike, the source gives them in different places.

How the values were obtained:
Format in all cases: cell-based
[1] = test system: Legionella pneumophila; assay: microbe, parasite or virus in culture
[2] = test system: Klebsiella oxytoca; assay: MIC, CLSI broth microdilution, clinical isolates; settings: Klebsiella oxytoca (N = 50)
[3] = test system: Streptococcus pneumoniae; assay: MIC, CLSI broth microdilution, clinical isolates
[4] = test system: Lancefield group C, F, G streptococci; assay: MIC, CLSI broth microdilution, clinical isolates; settings: G streptococci (N = 50)
[5] = test system: Citrobacter koseri; assay: MIC, CLSI broth microdilution, clinical isolates; settings: Citrobacter koseri (N = 100)
[6] = test system: Staphylococcus saprophyticus; assay: MIC, CLSI broth microdilution, clinical isolates; settings: Staphylococcus saprophyticus (N = 101)
[7] = test system: Staphylococcus lugdunensis; assay: MIC, CLSI broth microdilution, clinical isolates; settings: Staphylococcus lugdunensis (N = 15)
[8] = test system: Viridans streptococci; assay: MIC, CLSI broth microdilution, clinical isolates; settings: Viridans streptococci (N = 156)
[9] = test system: S. epidermidis; assay: MIC of clinical trial isolates, Studies 373, 433, 434; settings: Staphylococcus epidermidis, read-out: MIC90
[10] = test system: Haemophilus influenzae; assay: MIC, CLSI broth microdilution, clinical isolates; settings: for MIC50 / MIC90: Haemophilus influenzae
[11] = test system: Staphylococcus haemolyticus; assay: MIC, CLSI broth microdilution, clinical isolates; settings: Staphylococcus haemolyticus (N = 101)
[12] = test system: Staphylococcus epidermidis; assay: MIC, CLSI broth microdilution, clinical isolates; settings: for MIC50: Staphylococcus epidermidis
[13] = test system: Streptococcus pyogenes; assay: MIC, CLSI broth microdilution, clinical isolates; settings: Streptococcus pyogenes (N = 101)
[14] = test system: Morganella morganii; assay: MIC, CLSI broth microdilution, clinical isolates; settings: Morganella morganii (N = 51)
[15] = test system: Staphylococcus hominis; assay: MIC, CLSI broth microdilution, clinical isolates; settings: Staphylococcus hominis (N = 50)
[16] = test system: S. aureus; assay: MIC of clinical trial isolates, Studies 373, 433, 434; settings: Staphylococcus aureus
[17] = test system: Moraxella catarrhalis; assay: MIC, CLSI broth microdilution, clinical isolates; settings: Moraxella catarrhalis (N = 101)
[18] = test system: Staphylococcus warneri; assay: MIC, CLSI broth microdilution, clinical isolates; settings: Staphylococcus warneri (N = 50)
[19] = test system: Streptococcus agalactiae; assay: MIC, CLSI broth microdilution, clinical isolates; settings: Streptococcus agalactiae (N = 100)
[20] = test system: Staphylococcus aureus; assay: MIC, CLSI broth microdilution, clinical isolates; settings: for MIC50 / MIC90: Staphylococcus aureus
[21] = Streptococcus pneumoniae (PISP, N = 2)
[22] = Streptococcus pneumoniae (PRSP, N = 2)
[23] = Streptococcus pneumoniae (PSSP, N = 31)
[24] = Streptococcus pneumoniae (all phenotypes, N = 35)
[25] = Haemophilus influenzae (all phenotypes, N = 40)
[26] = Haemophilus influenzae (bla negative, N = 24)
[27] = Haemophilus influenzae (bla positive, N = 16)
[28] = Staphylococcus epidermidis (CNS, N = 6)
[29] = Staphylococcus epidermidis (CS, N = 9)
[30] = Staphylococcus epidermidis (MSSE, N = 6)
[31] = Staphylococcus epidermidis (all phenotypes, N = 15)
[32] = Staphylococcus aureus (CNS, N = 16)
[33] = Staphylococcus aureus (CS, N = 14)
[34] = Staphylococcus aureus (all phenotypes, N = 30)
[35] = MRSA, Staphylococcus aureus (MRSA, N = 11)
[36] = MSSA, Staphylococcus aureus (MSSA, N = 19)

`COc1c(N2CCNC(C)C2)c(F)cc2c(=O)c(C(=O)O)cn(C3CC3)c12` (stereo not shown) [Gatifloxacin] was tested, and the MIC50 ([1]; Legionella pneumophila) was 0.03 µg/mL (≈ 0.0799 µM), the MIC90 ([1]; Legionella pneumophila) was 0.06 µg/mL (≈ 0.16 µM) and the “MIC Range” value ([1]; Legionella pneumophila (N = 50)) was 0.015 to 0.06 µg/mL. For the same molecule, the “% S” value [2] was 92.0%, the MIC50 [2] was 0.03 µg/mL (≈ 0.0799 µM) and the MIC90 [2] was 0.5 µg/mL (≈ 1.33 µM). The “MIC Range” value [2] was 0.015 to 8 µg/mL, the “% S” value [3, 21] was 100.0% and the “MIC Range” value [3, 21] was 0.25-0.25 μg/mL. The “% S” value [3, 22] was 100.0%, the “MIC Range” value [3, 22] was 0.12 to 0.25 µg/mL and the “% S” value [3, 23] was 96.8%. For the same molecule, the MIC50 [3, 23] was 0.12 µg/mL (≈ 0.32 µM), the MIC90 [3, 23] was 0.25 µg/mL (≈ 0.666 µM) and the “MIC Range” value [3, 23] was 0.015 to 4 µg/mL. For the same molecule, the “% S” value [3, 24] was 97.1%, the “MIC Range” value [3, 24] was 0.015 to 4 µg/mL and the MIC50 ([3]; Streptococcus pneumoniae (all phenotypes, N = 35), read-out: MIC50) was 0.12 µg/mL (≈ 0.32 µM). The MIC90 ([3]; Streptococcus pneumoniae (all phenotypes, N = 35), read-out: MIC90) was 0.25 µg/mL (≈ 0.666 µM), the “% S” value [4] was 98.0% and the “MIC Range” value [4] was 0.06 to 2 µg/mL. The MIC50 ([4]; read-out: MIC50) was 0.12 µg/mL (≈ 0.32 µM), the MIC90 ([4]; read-out: MIC90) was 0.25 µg/mL (≈ 0.666 µM) and the “% S” value [5] was 99.0%. For the same molecule, the MIC50 [5] was 0.015 µg/mL (≈ 0.04 µM), the MIC90 [5] was 0.12 µg/mL (≈ 0.32 µM) and the “% S” value [6] was 100.0%. The MIC50 [6] was 0.12 µg/mL (≈ 0.32 µM), the MIC90 [6] was 0.25 µg/mL (≈ 0.666 µM) and the “MIC Range” value [6] was 0.03 to 0.25 µg/mL. The “% S” value [7] was 73.3%, the MIC50 [7] was 0.12 µg/mL (≈ 0.32 µM) and the MIC90 [7] was 2 µg/mL (≈ 5.33 µM). The “MIC Range” value [7] was 0.03 to 8 µg/mL, the “MIC Range” value [8] was 0.03 to 8 µg/mL and the MIC50 ([8]; read-out: MIC50) was 0.25 µg/mL (≈ 0.666 µM). The MIC90 ([8]; read-out: MIC90) was 0.5 µg/mL (≈ 1.33 µM), the MIC90 ([9]; MRSE, S. epidermidis MRSE-CR, N 24) was > 8 µg/mL and the MIC90 ([9]; MRSE, S. epidermidis MRSE-CS, N 27) was 0.25 µg/mL. For the same molecule, the MIC90 ([9]; S. epidermidis MSSE-CR, N 10) was 8 µg/mL, the MIC90 ([9]; S. epidermidis MSSE-CS, N 50) was 0.25 µg/mL and the “% S” value [10, 25] was 100.0%. For the same molecule, the “MIC Range” value [10, 25] was “≦0.004-0.015 μg/mL”, the “% S” value [10, 26] was 100.0% and the “MIC Range” value [10, 26] was “≦0.004-0.015 μg/mL”. The “% S” value [10, 27] was 100.0%, the “MIC Range” value [10, 27] was “≦0.004-0.015 μg/mL” and the MIC50 [10, 25] was 0.008 µg/mL (≈ 0.0213 µM). For the same molecule, the MIC90 [10, 25] was 0.008 µg/mL (≈ 0.0213 µM), the MIC50 [10, 26] was 0.008 µg/mL (≈ 0.0213 µM) and the MIC90 [10, 26] was 0.008 µg/mL (≈ 0.0213 µM). The MIC50 [10, 27] was 0.008 µg/mL (≈ 0.0213 µM), the MIC90 [10, 27] was 0.008 µg/mL (≈ 0.0213 µM) and the “% S” value [11] was 40.6%. The MIC50 [11] was 2 µg/mL (≈ 5.33 µM), the MIC90 [11] was 8 µg/mL (≈ 21.3 µM) and the “% S” value [12, 28] was 50.0%. The “% S” value [12, 29] was 100.0%, the “MIC Range” value [12, 29] was 0.06-0.06 μg/mL and the “% S” value ([12]; Staphylococcus epidermidis (MRSE, N = 9)) was 44.4%. For the same molecule, the “% S” value [12, 30] was 83.3%, the “MIC Range” value [12, 30] was 0.06 to 1 µg/mL and the “% S” value [12, 31] was 60.0%. The MIC90 [12, 31] was > 8 µg/mL, the MIC50 ([12]; MRSE, Staphylococcus epidermidis (MRSE, N = 9)) was 1 µg/mL (≈ 2.66 µM) and the MIC50 [12, 28] was 1 µg/mL (≈ 2.66 µM). It also gave an MIC50 [12, 29] of 0.06 µg/mL (≈ 0.16 µM), an MIC50 [12, 30] of 0.06 µg/mL (≈ 0.16 µM) and an MIC50 [12, 31] of 0.06 µg/mL (≈ 0.16 µM). For the same molecule, the “% S” value [13] was 100.0%, the “MIC Range” value [13] was 0.06 to 0.5 µg/mL and the MIC50 ([13]; read-out: MIC50) was 0.12 µg/mL (≈ 0.32 µM). For the same molecule, the MIC90 ([13]; read-out: MIC90) was 0.25 µg/mL (≈ 0.666 µM), the “% S” value [14] was 74.5% and the MIC50 [14] was 0.12 µg/mL (≈ 0.32 µM). The MIC90 [14] was > 8 µg/mL, the “% S” value [15] was 32.0% and the MIC50 [15] was 1 µg/mL (≈ 2.66 µM). The MIC90 [15] was 4 µg/mL (≈ 10.7 µM), the MIC90 ([16]; MRSA, S. aureus MRSA-CR, N 17, read-out: MIC90) was > 8 µg/mL and the MIC90 ([16]; MRSA, S. aureus MRSA-CS, N 9, read-out: MIC90 (due to limited isolates, highest MIC value is given)) was 0.25 µg/mL. For the same molecule, the MIC90 ([16]; MSSA, S. aureus MSSA-CR, N 17, read-out: MIC90) was > 8 µg/mL, the MIC90 ([16]; MSSA, S. aureus MSSA-CS, N 144, read-out: MIC90) was 0.25 µg/mL and the MIC50 [17] was 0.015 µg/mL (≈ 0.04 µM). The MIC90 [17] was 0.015 µg/mL (≈ 0.04 µM), the “MIC Range” value [17] was 0.008 to 0.25 µg/mL and the “% S” value [18] was 76.0%. The MIC50 [18] was 0.12 µg/mL (≈ 0.32 µM), the MIC90 [18] was 4 µg/mL (≈ 10.7 µM) and the “% S” value [19] was 100.0%. The “MIC Range” value [19] was 0.12 to 1 µg/mL, the MIC50 ([19]; read-out: MIC50) was 0.25 µg/mL (≈ 0.666 µM) and the MIC90 ([19]; read-out: MIC90) was 0.25 µg/mL (≈ 0.666 µM). For the same molecule, the “% S” value [20, 32] was 6.3%, the “% S” value [20, 33] was 92.9% and the “MIC Range” value [20, 33] was 0.03 to 1 µg/mL. For the same molecule, the “% S” value ([20]; Staphylococcus aureus (MRSA, N = 11)) was 18.2%, the “% S” value ([20]; Staphylococcus aureus (MSSA, N = 19)) was 63.2% and the “% S” value [20, 34] was 46.7%. For the same molecule, the MIC50 [20, 35] was 2 µg/mL (≈ 5.33 µM), the MIC90 [20, 35] was > 8 µg/mL and the MIC50 [20, 36] was 0.06 µg/mL (≈ 0.16 µM). The MIC90 [20, 36] was 2 µg/mL (≈ 5.33 µM), the MIC50 [20, 32] was 2 µg/mL (≈ 5.33 µM) and the MIC90 [20, 32] was > 8 µg/mL. For the same molecule, the MIC50 [20, 33] was 0.06 µg/mL (≈ 0.16 µM), the MIC90 [20, 33] was 0.25 µg/mL (≈ 0.666 µM) and the MIC50 [20, 34] was 1 µg/mL (≈ 2.66 µM). The MIC90 [20, 34] was > 8 µg/mL.
